Converted amounts (≈) assume the structure as drawn. Values belong to the compound of their own block, whether it stands above or below them.
Experiments:
Assay in all cases: In vitro antibacterial evaluation: minimum inhibitory concentration (MIC), broth dilution method
Format in all cases: cell-based
Enterococcus sp. = conditions: broth dilution, 5×10^5 CFU/mL, 18 hours at 35° C.
Experimental: (§1) The minimum inhibitory concentration (MIC), the lowest concentration of the antibiotic which inhibits growth of the test organism, is determined by the broth dilution method using Muller-Hinton II […] (Baltimore Biological Laboratories) following the recommendations of the National Committee for Clinical Laboratory Standards [Methods for dilution antimicrobial susceptibility tests for bacteria that grow aerobically, approved standard M7-A2, National Committee for Clinical Laboratory Standards, Villanova, Pa].
(§2) An inoculum level of 5×10^5 CFU/mL, and a range of antibiotic concentrations (64-0.06 μg/mL) is used. […] The test organisms include a spectrum of Gram-positive bacteria comprised of Staphylococcus sp., Streptococcus sp. and Enterococcus sp. These organisms include recent clinical isolates that are resistant to methicillin, penicillin and/or vancomycin.

Escherichia coli = conditions: 5×10^5 CFU/mL, 18 hours at 35° C.
Experimental: as §1, §2

Staphylococcus sp. = conditions: for MIC Staphylococcus aureus (ATCC 29213): strain ATCC 29213; for MIC Staphylococcus aureus (GC 1131): strain GC 1131; for MIC Staphylococcus aureus (GC 3051): strain GC 3051; for MIC Staphylococcus aureus (GC 3053): strain GC 3053; for MIC Staphylococcus aureus (GC 4541): strain GC 4541; for MIC Staphylococcus aureus (GC 4542): strain GC 4542; for MIC Staphylococcus aureus (GC 4544): strain GC 4544; for MIC Staphylococcus aureus (GC 4545): strain GC 4545
Experimental: as §1, §2

Streptococcus sp. = conditions: broth dilution, 5×10^5 CFU/mL, 18 hours at 35° C.
Experimental: as §1, §2

[1] = broth dilution, 5×10^5 CFU/mL, 18 hours at 35° C.
[2] = broth dilution, 18 hours at 35° C.
[3] = strain GC 4543, broth dilution, 18 hours at 35° C.
[4] = strain GC 4546, broth dilution, 18 hours at 35° C.
[5] = strain GC 4547, broth dilution, 18 hours at 35° C.
[6] = strain GC 4548, broth dilution, 18 hours at 35° C.
[7] = strain GC 4549, broth dilution, 18 hours at 35° C.
[8] = strain GC 4551, broth dilution, 18 hours at 35° C.
[9] = strain GC 6257, broth dilution, 18 hours at 35° C.

MIC Enterococccus avium (GC 4558) (Enterococcus sp.): 8 µg/mL (≈ 5.76 µM)
MIC Enterococccus faecalis (ATCC 29212) (Enterococcus sp.): 8 µg/mL (≈ 5.76 µM)
MIC Enterococccus faecalis (GC 2691) (Enterococcus sp.): 8 µg/mL (≈ 5.76 µM)
MIC Enterococccus faecalis (GC 3059) (Enterococcus sp.): 8 µg/mL (≈ 5.76 µM)
MIC Enterococccus faecalis (GC 4552) (Enterococcus sp.): 8 µg/mL (≈ 5.76 µM)
MIC Enterococccus faecalis (GC 4553) (Enterococcus sp.): 8 µg/mL (≈ 5.76 µM)
MIC Enterococccus faecalis (GC 4554) (Enterococcus sp.): 8 µg/mL (≈ 5.76 µM)
MIC Enterococccus faecalis (GC 6189) (Enterococcus sp.): 4 µg/mL (≈ 2.88 µM)
MIC Enterococccus faecium (GC 2243) (Enterococcus sp.): 8 µg/mL (≈ 5.76 µM)
MIC Enterococccus faecium (GC 4556) (Enterococcus sp.): 8 µg/mL (≈ 5.76 µM)
MIC Enterococccus faecium (GC 4557) (Enterococcus sp.): 2 µg/mL (≈ 1.44 µM)
MIC Enterococcus faecalis (GC 2242) (Enterococcus sp.): 4 µg/mL (≈ 2.88 µM)
MIC Escherichia coli (ATCC 25922) (Escherichia coli): 64 µg/mL (≈ 46.1 µM)
MIC Escherichia coli (GC 4559) (Escherichia coli): 32 µg/mL (≈ 23 µM)
MIC Escherichia coli (GC 4560) (Escherichia coli): <0.5 µg/mL
MIC Coagulase Negative Staphylococcus (GC 4547) (Staphylococcus sp.; [1]): 1 µg/mL (≈ 0.72 µM)
MIC Coagulase Negative Staphylococcus (GC 4548) (Staphylococcus sp.; [1]): <0.5 µg/mL
MIC Coagulase Negative Staphylococcus (GC 4549) (Staphylococcus sp.; [1]): 1 µg/mL (≈ 0.72 µM)
MIC Coagulase Negative Staphylococcus (GC 4551) (Staphylococcus sp.; [1]): 1 µg/mL (≈ 0.72 µM)
MIC Coagulase Negative Staphylococcus (GC 6257) (Staphylococcus sp.; [1]): 1 µg/mL (≈ 0.72 µM)
MIC Staphylococcus aureus-SMITH (GC 4543) (Staphylococcus sp.; [1]): 1 µg/mL (≈ 0.72 µM)
MIC Staphylococcus aureus (ATCC 29213) (Staphylococcus sp.): 1 µg/mL (≈ 0.72 µM)
MIC Staphylococcus aureus (ATCC 29213) (Staphylococcus sp.; [2]): 1 µg/mL (≈ 0.72 µM)
MIC Staphylococcus aureus (GC 1131) (Staphylococcus sp.): 2 µg/mL (≈ 1.44 µM)
MIC Staphylococcus aureus (GC 1131) (Staphylococcus sp.; [2]): 2 µg/mL (≈ 1.44 µM)
MIC Staphylococcus aureus (GC 3051) (Staphylococcus sp.): 1 µg/mL (≈ 0.72 µM)
MIC Staphylococcus aureus (GC 3051) (Staphylococcus sp.; [2]): 1 µg/mL (≈ 0.72 µM)
MIC Staphylococcus aureus (GC 3053) (Staphylococcus sp.): 4 µg/mL (≈ 2.88 µM)
MIC Staphylococcus aureus (GC 3053) (Staphylococcus sp.; [2]): 4 µg/mL (≈ 2.88 µM)
MIC Staphylococcus aureus (GC 4541) (Staphylococcus sp.): 1 µg/mL (≈ 0.72 µM)
MIC Staphylococcus aureus (GC 4541) (Staphylococcus sp.; [2]): 1 µg/mL (≈ 0.72 µM)
MIC Staphylococcus aureus (GC 4542) (Staphylococcus sp.): 2 µg/mL (≈ 1.44 µM)
MIC Staphylococcus aureus (GC 4542) (Staphylococcus sp.; [2]): 2 µg/mL (≈ 1.44 µM)
MIC Staphylococcus aureus-SMITH (GC 4543) (Staphylococcus sp.; [3]): 1 µg/mL (≈ 0.72 µM)
MIC Staphylococcus aureus (GC 4544) (Staphylococcus sp.): 2 µg/mL (≈ 1.44 µM)
MIC Staphylococcus aureus (GC 4544) (Staphylococcus sp.; [2]): 2 µg/mL (≈ 1.44 µM)
MIC Staphylococcus aureus (GC 4545) (Staphylococcus sp.): 1 µg/mL (≈ 0.72 µM)
MIC Staphylococcus aureus (GC 4545) (Staphylococcus sp.; [2]): 1 µg/mL (≈ 0.72 µM)
MIC Coagulase Negative Staphylococcus (GC 4547) (Staphylococcus sp.; [5]): 1 µg/mL (≈ 0.72 µM)
MIC Coagulase Negative Staphylococcus (GC 4548) (Staphylococcus sp.; [6]): <0.5 µg/mL
MIC Coagulase Negative Staphylococcus (GC 4549) (Staphylococcus sp.; [7]): 1 µg/mL (≈ 0.72 µM)
MIC Coagulase Negative Staphylococcus (GC 4551) (Staphylococcus sp.; [8]): 1 µg/mL (≈ 0.72 µM)
MIC Coagulase Negative Staphylococcus (GC 6257) (Staphylococcus sp.; [9]): 1 µg/mL (≈ 0.72 µM)
MIC Streptococcus agalactiae (GC 4564) (Streptococcus sp.): <0.5 µg/mL
MIC Streptococcus pneumoniae (GC 1894) (Streptococcus sp.): <0.5 µg/mL
MIC Streptococcus pneumoniae (GC 4565) (Streptococcus sp.): 4 µg/mL (≈ 2.88 µM)
MIC Streptococcus pneumonine (ATCC 6301) (Streptococcus sp.): <0.5 µg/mL
MIC Streptococcus pyogenes (GC 4563) (Streptococcus sp.): <0.5 µg/mL
SMILES: CC(c1ccccc1)C1NC(=O)CNC(=O)C(CO)NC(=O)C(C(O)C2CNC(=N)N2C2OC(CO)C(O)C(O)C2O)NC(=O)C(C(O)C2CNC(=N)N2)NC(=O)C(Cc2ccc(OC3OC(CO)C(OC4OC5COC(c6ccsc6)OC5C(O)C4O)C(O)C3O)cc2)NC1=O (stereo not drawn) [Example 133, Cyclo[glycyl-β-methylphenylalanyl-O-[4-O-[4,6-O-(3-thienylmethylene)hexopyranosyl]-hexopyranosyl]tyrosyl-3-(2-iminoimidazolidin-4-yl)seryl-3-(3-hexopyranosyl-2-iminoimidazolidin-4-yl)serylseryl]]
MIC Staphylococcus haemolyticus (GC 4546) (Staphylococcus sp.; [1]): 1 µg/mL (≈ 0.72 µM)
MIC Staphylococcus haemolyticus (GC 4546) (Staphylococcus sp.; [4]): 1 µg/mL (≈ 0.72 µM)

MIC Enterococccus avium (GC 4558) (Enterococcus sp.): 64 µg/mL (≈ 45.7 µM)
MIC Enterococccus faecalis (ATCC 29212) (Enterococcus sp.): >64 µg/mL
MIC Enterococccus faecalis (GC 2691) (Enterococcus sp.): >64 µg/mL
MIC Enterococccus faecalis (GC 3059) (Enterococcus sp.): >64 µg/mL
MIC Enterococccus faecalis (GC 4552) (Enterococcus sp.): >64 µg/mL
MIC Enterococccus faecalis (GC 4553) (Enterococcus sp.): >64 µg/mL
MIC Enterococccus faecalis (GC 4554) (Enterococcus sp.): >64 µg/mL
MIC Enterococccus faecalis (GC 6189) (Enterococcus sp.): 64 µg/mL (≈ 45.7 µM)
MIC Enterococccus faecium (GC 2243) (Enterococcus sp.): >64 µg/mL
MIC Enterococccus faecium (GC 4556) (Enterococcus sp.): 64 µg/mL (≈ 45.7 µM)
MIC Enterococccus faecium (GC 4557) (Enterococcus sp.): 8 µg/mL (≈ 5.72 µM)
MIC Enterococcus faecalis (GC 2242) (Enterococcus sp.): 64 µg/mL (≈ 45.7 µM)
MIC Escherichia coli (ATCC 25922) (Escherichia coli): >64 µg/mL
MIC Escherichia coli (GC 4559) (Escherichia coli): >64 µg/mL
MIC Escherichia coli (GC 4560) (Escherichia coli): 4 µg/mL (≈ 2.86 µM)
MIC Coagulase Negative Staphylococcus (GC 4547) (Staphylococcus sp.; [1]): 8 µg/mL (≈ 5.72 µM)
MIC Coagulase Negative Staphylococcus (GC 4548) (Staphylococcus sp.; [1]): 8 µg/mL (≈ 5.72 µM)
MIC Coagulase Negative Staphylococcus (GC 4549) (Staphylococcus sp.; [1]): 4 µg/mL (≈ 2.86 µM)
MIC Coagulase Negative Staphylococcus (GC 4551) (Staphylococcus sp.; [1]): 32 µg/mL (≈ 22.9 µM)
MIC Coagulase Negative Staphylococcus (GC 6257) (Staphylococcus sp.; [1]): 4 µg/mL (≈ 2.86 µM)
MIC Staphylococcus aureus-SMITH (GC 4543) (Staphylococcus sp.; [1]): 16 µg/mL (≈ 11.4 µM)
MIC Staphylococcus aureus (ATCC 29213) (Staphylococcus sp.): 16 µg/mL (≈ 11.4 µM)
MIC Staphylococcus aureus (ATCC 29213) (Staphylococcus sp.; [2]): 16 µg/mL (≈ 11.4 µM)
MIC Staphylococcus aureus (GC 1131) (Staphylococcus sp.): 16 µg/mL (≈ 11.4 µM)
MIC Staphylococcus aureus (GC 1131) (Staphylococcus sp.; [2]): 16 µg/mL (≈ 11.4 µM)
MIC Staphylococcus aureus (GC 3051) (Staphylococcus sp.): 16 µg/mL (≈ 11.4 µM)
MIC Staphylococcus aureus (GC 3051) (Staphylococcus sp.; [2]): 16 µg/mL (≈ 11.4 µM)
MIC Staphylococcus aureus (GC 3053) (Staphylococcus sp.): 32 µg/mL (≈ 22.9 µM)
MIC Staphylococcus aureus (GC 3053) (Staphylococcus sp.; [2]): 32 µg/mL (≈ 22.9 µM)
MIC Staphylococcus aureus (GC 4541) (Staphylococcus sp.): 8 µg/mL (≈ 5.72 µM)
MIC Staphylococcus aureus (GC 4541) (Staphylococcus sp.; [2]): 8 µg/mL (≈ 5.72 µM)
MIC Staphylococcus aureus (GC 4542) (Staphylococcus sp.): 16 µg/mL (≈ 11.4 µM)
MIC Staphylococcus aureus (GC 4542) (Staphylococcus sp.; [2]): 16 µg/mL (≈ 11.4 µM)
MIC Staphylococcus aureus-SMITH (GC 4543) (Staphylococcus sp.; [3]): 16 µg/mL (≈ 11.4 µM)
MIC Staphylococcus aureus (GC 4544) (Staphylococcus sp.): 16 µg/mL (≈ 11.4 µM)
MIC Staphylococcus aureus (GC 4544) (Staphylococcus sp.; [2]): 16 µg/mL (≈ 11.4 µM)
MIC Staphylococcus aureus (GC 4545) (Staphylococcus sp.): 16 µg/mL (≈ 11.4 µM)
MIC Staphylococcus aureus (GC 4545) (Staphylococcus sp.; [2]): 16 µg/mL (≈ 11.4 µM)
MIC Coagulase Negative Staphylococcus (GC 4547) (Staphylococcus sp.; [5]): 8 µg/mL (≈ 5.72 µM)
MIC Coagulase Negative Staphylococcus (GC 4548) (Staphylococcus sp.; [6]): 8 µg/mL (≈ 5.72 µM)
MIC Coagulase Negative Staphylococcus (GC 4549) (Staphylococcus sp.; [7]): 4 µg/mL (≈ 2.86 µM)
MIC Coagulase Negative Staphylococcus (GC 4551) (Staphylococcus sp.; [8]): 32 µg/mL (≈ 22.9 µM)
MIC Coagulase Negative Staphylococcus (GC 6257) (Staphylococcus sp.; [9]): 4 µg/mL (≈ 2.86 µM)
MIC Streptococcus agalactiae (GC 4564) (Streptococcus sp.): 8 µg/mL (≈ 5.72 µM)
MIC Streptococcus pneumoniae (GC 1894) (Streptococcus sp.): 1 µg/mL (≈ 0.715 µM)
MIC Streptococcus pneumoniae (GC 4565) (Streptococcus sp.): 4 µg/mL (≈ 2.86 µM)
MIC Streptococcus pneumonine (ATCC 6301) (Streptococcus sp.): 2 µg/mL (≈ 1.43 µM)
MIC Streptococcus pyogenes (GC 4563) (Streptococcus sp.): 8 µg/mL (≈ 5.72 µM)
SMILES: CC(c1ccccc1)C1NC(=O)CNC(=O)C(CO)NC(=O)C(C(O)C2CNC(=N)N2C2OC(CO)C(O)C(O)C2O)NC(=O)C(C(O)C2CNC(=N)N2)NC(=O)C(Cc2ccc(OC3OC(CO)C(OC4OC5COC(c6cccc(O)c6)OC5C(O)C4O)C(O)C3O)cc2)NC1=O (stereo not drawn) [Example 136, Cyclo[glycyl-β-methylphenylalanyl-O-[4-O-[4,6-O-(3-hydroxybenzylidene)hexopyranosyl]-hexopyranosyl]tyrosyl-3-(2-iminoimidazolidin-4-yl)seryl-3-(3-hexopyranosyl-2-iminoimidazoliclin-4-yl)serylseryl]]
MIC Staphylococcus haemolyticus (GC 4546) (Staphylococcus sp.; [1]): 16 µg/mL (≈ 11.4 µM)
MIC Staphylococcus haemolyticus (GC 4546) (Staphylococcus sp.; [4]): 16 µg/mL (≈ 11.4 µM)
